In patent US12281119B2, “Imidazo[2,1-f][1,2,4]triazin-4-amine derivatives as TLR7 agonist” (BEIGENE, LTD., priority 2019, dated 2025):

The compounds below were run against T1, human TLR7 (Homo sapiens, UniProt Q9NYK1) (assay: HEK293-Blue hTLR7 reporter assay (QUANTI-BLUE, SEAP readout)). Conditions: HEK-Blue-hTLR7 cells, QUANTI-BLUE assay (A1-A76), 24 hrs.
T1 sequence (Q9NYK1 27-1049): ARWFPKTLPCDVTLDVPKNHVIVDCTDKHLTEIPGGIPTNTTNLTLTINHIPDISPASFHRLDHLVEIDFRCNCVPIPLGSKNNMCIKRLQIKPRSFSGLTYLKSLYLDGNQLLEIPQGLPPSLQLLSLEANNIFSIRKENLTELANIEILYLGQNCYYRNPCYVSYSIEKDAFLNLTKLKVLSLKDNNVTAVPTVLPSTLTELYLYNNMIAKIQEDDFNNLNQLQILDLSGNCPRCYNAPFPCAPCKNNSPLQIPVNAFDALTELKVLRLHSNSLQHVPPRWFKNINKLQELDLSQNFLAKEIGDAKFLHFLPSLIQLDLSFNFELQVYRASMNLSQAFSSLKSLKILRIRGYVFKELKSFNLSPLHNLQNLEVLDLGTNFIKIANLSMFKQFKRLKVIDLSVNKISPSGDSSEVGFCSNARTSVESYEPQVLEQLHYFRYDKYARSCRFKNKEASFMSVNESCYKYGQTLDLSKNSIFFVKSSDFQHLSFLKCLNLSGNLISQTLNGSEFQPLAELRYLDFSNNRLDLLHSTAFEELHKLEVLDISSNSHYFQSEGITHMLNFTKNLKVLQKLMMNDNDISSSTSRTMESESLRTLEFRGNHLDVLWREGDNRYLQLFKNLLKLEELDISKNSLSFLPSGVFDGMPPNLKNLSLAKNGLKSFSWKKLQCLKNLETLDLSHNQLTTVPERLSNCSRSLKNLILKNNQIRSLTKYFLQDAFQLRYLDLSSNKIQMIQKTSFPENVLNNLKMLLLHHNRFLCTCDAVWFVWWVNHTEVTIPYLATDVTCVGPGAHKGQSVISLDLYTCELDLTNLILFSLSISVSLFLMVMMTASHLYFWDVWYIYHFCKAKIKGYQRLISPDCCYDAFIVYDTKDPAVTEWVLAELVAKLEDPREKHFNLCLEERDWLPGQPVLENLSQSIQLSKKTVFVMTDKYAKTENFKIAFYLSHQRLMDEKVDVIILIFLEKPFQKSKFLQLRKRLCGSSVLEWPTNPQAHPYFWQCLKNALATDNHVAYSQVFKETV
Type: cell-based
Set-up: host or cells: HEK293 (HEK-Blue-hTLR7)
Procedure: HEK293-Blue hTLR7 Reporter Assay:
HEK-Blue-hTLR7 cell line (Invivogen, Cat. No. hkb-htlr7) was designed so that the expression of the secreted embryonic alkaline phosphatase (SEAP) was induced by activating NF-κ and AP-1 via stimulating human TLR7 with TLR7 agonists.
HEK-Blue-hTLR7 cells were seeded at a density of 4×10^4 cells/well in a volume of 180 μL in a 96-well plate in DMEM (Cat. No. 11965-092) supplemented with 10% (v/v) heat-inactivated fetal bovine serum (FBS) (Gibco, 10099-1441), 100 U/ml penicillin and 100 μg/ml streptomycin (Gibco, 15140122) containing […], […] and 10% (v/v) heat-inactivated fetal bovine serum. The cells were settled for 5 hrs, then treated with increasing amounts of tested compounds at 37° C. for 24 hrs. Then 20 μL of the supernatant from each well was incubated with 180 uL Quanti-blue substrate solution at 37° C. for 10-30 mins before the activity of the SEAP was determined at 620-655 nm using a spectrophotometer. The EC50 value for each compound was calculated with GraphPad Prism software using the sigmoidal dose-response function.
`CCCCOc1nc(N)c2ncc(Cc3ccc(CN4CCCC4)cc3)n2n1` [Compound A1, 2-butoxy-7-(4-(pyrrolidin-1-ylmethyl)benzyl)imidazo[2,1-f][1,2,4]triazin-4-amine] gave an EC50 of 0.9 µM.
With `CCCCOc1nc(N)c2ncc(Cc3ccc(OCCCN(C)C)cc3)n2n1` [Compound A2, 2-butoxy-7-(4-(3-(dimethylamino)propoxy)benzyl)imidazo[2,1-f][1,2,4]triazin-4-amine] the EC50 was 0.92 µM.
In the case of `CCCCOc1nc(N)c2ncc(Cc3ccc(CN4CCOCC4)cc3)n2n1` [Compound A3, 2-butoxy-7-(4-(morpholinomethyl)benzyl)imidazo[2,1-f][1,2,4]triazin-4-amine], the EC50 is reported as > 10 µM.
In the case of `CCCCOc1nc(N)c2ncc(Cc3ccc(N(C)CCN(C)C)nc3)n2n1` [Compound A4, N^1-(5-((4-amino-2-butoxyimidazo[2,1-f][1,2,4]triazin-7-yl)methyl)pyridin-2-yl)-N^1,N^2,N^2-trimethylethane-1,2-diamine], the EC50 is reported as 1.85 µM.
Work on `CCCCOc1nc(N)c2ncc(Cc3ccc(CN4CCCCC4)cc3)n2n1` [Compound A5, 2-butoxy-7-(4-(piperidin-1-ylmethyl)benzyl)imidazo[2,1-f][1,2,4]triazin-4-amine] yielded an EC50 of 1.27 µM.
`CCCCOc1nc(N)c2ncc(Cc3ccc(CN4CCN(C)CC4)cc3)n2n1` [Compound A6, 2-butoxy-7-(4-((4-methylpiperazin-1-yl)methyl)benzyl)imidazo[2,1-f][1,2,4]triazin-4-amine] was tested, and the EC50 was 1.51 µM.
With `CCCCOc1nc(N)c2ncc(Cc3cccc(CN4CCCCC4)c3)n2n1` [Compound A7, 2-butoxy-7-(3-(piperidin-1-ylmethyl)benzyl)imidazo[2,1-f][1,2,4]triazin-4-amine] the EC50 was > 10 µM.
For `CCCCOc1nc(N)c2ncc(Cc3ccc4c(c3)CN(C(C)C)CC4)n2n1` [Compound A9, 2-butoxy-7-((2-isopropyl-1,2,3,4-tetrahydroisoquinolin-7-yl)methyl)imidazo[2,1-f][1,2,4]triazin-4-amine], the EC50 was > 10 µM.
With `CCCCOc1nc(N)c2ncc(Cc3cccc(CN4CCCC4)c3)n2n1` [Compound A11, 2-butoxy-7-(3-(pyrrolidin-1-ylmethyl)benzyl)imidazo[2,1-f][1,2,4]triazin-4-amine] the EC50 was > 10 µM.
With `CCCCOc1nc(N)c2ncc(Cc3cccc(CN4CCOCC4)c3)n2n1` [Compound A12, 2-butoxy-7-(3-(morpholinomethyl)benzyl)imidazo[2,1-f][1,2,4]triazin-4-amine] the EC50 was > 10 µM.
In the case of `CCCCOc1nc(N)c2ncc(Cc3cccc(CN4CCN(C)CC4)c3)n2n1` [Compound A13, 2-butoxy-7-(3-((4-methylpiperazin-1-yl)methyl)benzyl)imidazo[2,1-f][1,2,4]triazin-4-amine], the EC50 is reported as > 10 µM.
For `CCCCOc1nc(N)c2ncc(Cc3ccccc3CN3CCOCC3)n2n1` [Compound A14, 2-butoxy-7-(2-(morpholinomethyl)benzyl)imidazo[2,1-f][1,2,4]triazin-4-amine], the EC50 was > 10 µM.
In the case of `CCCCOc1nc(N)c2ncc(Cc3ccccc3CN3CCCCC3)n2n1` [Compound A15, 2-butoxy-7-(2-(piperidin-1-ylmethyl)benzyl)imidazo[2,1-f][1,2,4]triazin-4-amine], the EC50 is reported as > 10 µM.
`CC(C)COc1nc(N)c2ncc(Cc3cccc(CN4CCCC4)c3)n2n1` [Compound A16, 2-isobutoxy-7-(3-(pyrrolidin-1-ylmethyl)benzyl)imidazo[2,1-f][1,2,4]triazin-4-amine] was tested, and the EC50 was > 10 µM.
With `COCCOc1nc(N)c2ncc(Cc3cccc(CN4CCCC4)c3)n2n1` [Compound A17, 2-(2-methoxyethoxy)-7-(3-(pyrrolidin-1-ylmethyl)benzyl)imidazo[2,1-f][1,2,4]triazin-4-amine] the EC50 was > 10 µM.
With `Nc1nc(OCCCC(F)(F)F)nn2c(Cc3cccc(CN4CCCC4)c3)cnc12` [Compound A18, 7-(3-(pyrrolidin-1-ylmethyl)benzyl)-2-(4,4,4-trifluorobutoxy)imidazo[2,1-f][1,2,4]triazin-4-amine] the EC50 was > 10 µM.
`CCCCOc1nc(N)c2ncc(Cc3ccccc3CN3CCCC3)n2n1` [Compound A19, 2-butoxy-7-(2-(pyrrolidin-1-ylmethyl)benzyl)imidazo[2,1-f][1,2,4]triazin-4-amine] was tested, and the EC50 was > 10 µM.
In the case of `CCCCOc1nc(N)c2ncc(Cc3ccc(CN4CCCC4)cc3F)n2n1` [Compound A20, 2-butoxy-7-(2-fluoro-4-(pyrrolidin-1-ylmethyl)benzyl)imidazo[2,1-f][1,2,4]triazin-4-amine], the EC50 is reported as 1.75 µM.
For `CCCCOc1nc(N)c2ncc(Cc3ccc(OCCCN4CCCCC4)cc3)n2n1` [Compound A21, 2-butoxy-7-(4-(3-(piperidin-1-yl)propoxy)benzyl)imidazo[2,1-f][1,2,4]triazin-4-amine], the EC50 was 2.87 µM.
`CCCCOc1nc(N)c2ncc(Cc3ccc(OCCCN4CCOCC4)cc3)n2n1` [Compound A22, 2-butoxy-7-(4-(3-morpholinopropoxy)benzyl)imidazo[2,1-f][1,2,4]triazin-4-amine] was tested, and the EC50 was 5.71 µM.
In the case of `CCCCOc1nc(N)c2ncc(Cc3cccc(OCCCN(C)C)c3)n2n1` [Compound A23, 2-butoxy-7-(3-(3(dimethylamino)propoxy)benzyl)imidazo[2,1-f][1,2,4]triazin-4-amine], the EC50 is reported as > 10 µM.
With `CCCCOc1nc(N)c2ncc(Cc3ccc(F)c(OCCCN(C)C)c3)n2n1` [Compound A24, 2-butoxy-7-(3-(3-(dimethylamino)propoxy)-4-fluorobenzyl)imidazo[2,1-f][1,2,4]triazin-4-amine] the EC50 was > 10 µM.
In the case of `CCCCOc1nc(N)c2ncc(Cc3cccc(-c4ccc(CN5CCCC5)cc4)c3)n2n1` [Compound A25, 2-butoxy-7-((4′-(pyrrolidin-1-ylmethyl)-[1,1′-biphenyl]-3-yl)methyl)imidazo[2,1-f][1,2,4]triazin-4-amine], the EC50 is reported as > 10 µM.
`CCCCOc1nc(N)c2ncc(Cc3cc(CN4CCCC4)ccc3F)n2n1` [Compound A26, 2-butoxy-7-(2-fluoro-5-(pyrrolidin-1-ylmethyl)benzyl)Imidazo[2,1-f][1,2,4]triazin-4-amine] was tested, and the EC50 was > 10 µM.
`CCCCOc1nc(N)c2ncc(Cc3ccccc3OCCCN(C)C)n2n1` [Compound A27, 2-butoxy-7-(2-(3-(dimethylamino)propoxy)benzyl)imidazo[2,1-f][1,2,4]triazin-4-amine] was tested, and the EC50 was > 10 µM.
In the case of `CCCCOc1nc(N)c2ncc(Cc3ccc(OCCCN4CCCC4)cc3)n2n1` [Compound A28, 2-butoxy-7-(4-(3-(pyrrolidin-1-yl)propoxy)benzyl)imidazo[2,1-f][1,2,4]triazin-4-amine], the EC50 is reported as 1.79 µM.
`CCCCOc1nc(N)c2ncc(Cc3ccc(OCCCN(CC)CC)cc3)n2n1` [Compound A29, 2-butoxy-7-(4-(3-(diethylamino)propoxy)benzyl)imidazo[2,1-f][1,2,4]triazin-4-amine] was tested, and the EC50 was 2.6 µM.
For `CCCCOc1nc(N)c2ncc(Cc3ccc(-c4ccc(CN5CCCC5)cc4)cc3)n2n1` [Compound A30, 2-butoxy-7-((4′-(pyrrolidin-1-ylmethyl)-[1,1′-biphenyl]-4-yl)methyl)imidazo[2,1-f][1,2,4]triazin-4-amine], the EC50 was 3.52 µM.
In the case of `CCCCOc1nc(N)c2ncc(Cc3ccc(OCCCN)cc3)n2n1` [Compound A31, 7-(4-(3-aminopropoxy)benzyl)-2-butoxyimidazo[2,1-f][1,2,4]triazin-4-amine], the EC50 is reported as > 10 µM.
In the case of `CCCCOc1nc(N)c2ncc(Cc3ccc(OCCCN(C)C)nc3)n2n1` [Compound A32, 2-butoxy-7-((6-(3-(dimethylamino)propoxy)pyridin-3-yl)methyl)imidazo[2,1-f][1,2,4]triazin-4-amine], the EC50 is reported as 0.861 µM.
